Reference: paper PMC5236087, “A Generic Multi-Compartmental CNS Distribution Model Structure for 9 Drugs Allows Prediction of Human Brain Target Site Concentrations” (Pharmaceutical Research, 2016)
Where two headings read alike, the source gives them in different places. Marks after values point to notes of the source that are not given here.

Tests used:
[1] = system: P-gp; conditions: rat; for Impact of active transport on QPL_ECF (covariate effect of inhibitor): with GF120918 or tariquidar, estimate (RSE, %)
[2] = Multi-compartmental brain PK model fitted to rat plasma and microdialysis (brainECF, CSF) data; assay type: in vivo; conditions: parameter estimate (RSE, %); for clearance: male, Wistar, plasma, intravenous infusion, read-out: CLPL, clearance from the central compartment
Experimental: An overview of experimental data for nine compounds with different physicochemical characteristics used for model development is provided in Table I. The physicochemical characteristics of the nine compounds are provided in Table SI.
Animal study protocols were approved by the Animal Ethics Committee of Leiden University and all animal experiments were performed in accordance with the Dutch Law of Animal Experimentation (for approval numbers see Table SII). […] Between surgery and experiments, the animals were kept individually in Makrolon type three cages for 7 days to recover from surgical procedures.
Rats were anesthetized (5% isoflurane for induction, 1–2% as maintenance), and subsequently received cannulas in the femoral artery for serial blood sampling, and in the femoral vein for drug administration, respectively. Subsequently, microdialysis guides were inserted into different brain locations. The animals were allowed to recover for 1 week before the experiments were performed. One day before the experiment, the microdialysis dummies were replaced by microdialysis probes. For details on guides, probes and locations see Table SII.
Experiments generally started at 9:00 a.m. to minimize the influence of circadian rhythms. Microdialysis probes were continuously flushed with microdialysis perfusion fluid (PF) until equilibration before the start of drug administration. Drugs were administered at t = 0 h by intravenous infusion through the cannula implanted in the femoral vein. […] The general procedure of microdialysis is depicted in Fig. 1.
Separate models describing plasma and brain concentration-time profiles for all nine compounds were developed whereby plasma- and brain-related parameters were estimated simultaneously. A naïve pooling approach was used ([37]), i.e. inter-individual variability in each compound’s data was not quantified, because of the highly standardized experimental settings combined with the homogeneous nature of the animals within each study.
The structural model that was used as a starting point was based on our previously developed models ([23]–[25]).
First, a combined drug dispersion parameter was estimated to capture the CSF and ECF flow and turbulence flow of the drug molecules ([38],[39]).
Second, drug transfer across the BCSFB was excluded.
We evaluated for each drug the validity of the changes to the basic model with regard to a single or two different flow rates for drug dispersion and drug transport at the BCSFB.

[3] = cited from earlier work; for plasma protein binding (% bound): used to calculate free fraction in plasma; for fP (%), free fraction in plasma: rat data
[4] = parameters: method as in DrugBank (http://www.drugbank.ca/); PSA: unit not given beside the values; conditions: ref DrugBank (http://www.drugbank.ca/), cited from earlier work
[5] = Fraction unbound in plasma (rat data); assay type: in vitro ADME; conditions: rat pooled plasma, ultrafiltration; read-out: fP (%), free fraction in plasma
Experimental: To determine the free fraction of paliperidone and risperidone in plasma samples, Centrifree Ultrafiltration Devices from Merck Millipore (Amsterdam, The Netherlands) were used to separate the free from the protein bound risperidone and paliperidone in pooled plasma samples. Both the ultrafiltrate and the original pooled plasma sample (without ultrafiltration step) were measured. The free fraction was calculated according to the following Eq. 1:1 Freefraction=Ultrafiltrateconcentration/Pooledplasmaconcentration

[6] = parameters: method as in PMID 4150300; conditions: human; cited from earlier work
[7] = system: MRPs, OATs and OATPs; assay: Effect of co-administered probenecid on drug exchange at the BBB and BCSFB; assay type: in vivo; conditions: rat
[8] = with probenecid, estimate (RSE, %)

| Compound | increase of QPL_ECF in the presence of P-gp inhibitors [1] [%] | Impact of active transport on QPL_ECF (covariate effect of inhibitor) [1] | clearance [2] [mL/min] | QDIFF, drug dispersion rate in brain and CSF [2] | VPER1, distribution volume of the peripheral compartment 1 [2] | VPL, distribution volume of the central compartment [2] | No. of H acceptors [4] | No. of H donors [4] | PSA [4] | log D (pH 7.4) [4] | pKa (Base) [4] | other results |
| --- | --- | --- | --- | --- | --- | --- | --- | --- | --- | --- | --- | --- |
| O=C1NC(=O)C(c2ccccc2)(c2ccccc2)N1 [Phenytoin] | 35.5 | 0.355 (25.1)^b | 44.7 | 0.0133 (13.0) mL/min | 5320 (7.80) mL | 2890 (7.90) mL | 2 | 2 | 58 |  |  | QDIFF, drug dispersion rate in brain and CSF ([2]; listed as phenytoin): 0.0133 mL/min; plasma protein binding (% bound) [3]: 91% |
| C=C[C@H]1C[N@@]2CC[C@H]1C[C@@H]2[C@@H](O)c1ccnc2ccc(OC)cc12 [Quinidine] | 443 | 4.43 (2.80)^b |  | 0.0237 (2.40) mL/min |  |  | 4 | 1 | 46 |  |  | fP (%), free fraction in plasma ([3]; ref Westerhout, 2013): 14% |
| CC(C)NCC(O)COc1ccc(CC(N)=O)cc1 (stereo not drawn) [Atenolol] |  |  |  |  |  |  | 4 | 3 |  |  |  |  |
| CCN1CCC[C@H]1CNC(=O)c1c(OC)ccc(Br)c1OC [Remoxipride] |  |  |  |  |  |  | 4 | 1 | 51 | 0.7 | 8.4 | fP (%), free fraction in plasma ([3]; ref Widman, 1993): 74%; plasma protein binding (% bound) [3]: 26%; log P [4]: 2.1; pKa (Acid) [4]: 13.1 |
| Cc1nc2n(c(=O)c1CCN1CCC(c3noc4cc(F)ccc34)CC1)CCCC2O (stereo not drawn) [Paliperidone] | 43.4 | 0.434 (11.4)^b | 192 | 0.0248 (10.7) mL/min |  | 28400 (8.00) mL | 5 | 1 | 82 | 2.1 | 8.8 | fraction unbound [5]: 0.08; log P [4]: 1.8 |
| CC(=O)Nc1ccc(O)cc1 [Acetaminophen] |  |  |  | 0.0556 (10.3) mL/min | 219 (8.90) mL | 65.7 (25.4) mL | 2 | 2 | 49 | 0.5 | -4.4 | fraction; percentage of the drug which is reabsorbed by enterohepatic circulation [2]: 93.3(1.20) %; fP (%), free fraction in plasma ([3]; ref Westerhout, 2011): 81%; fp, free fraction in plasma [6]: 85% |
| CN1CC[C@]23c4c5ccc(O)c4O[C@H]2[C@@H](O)C=C[C@H]3[C@H]1C5 [Morphine] |  |  |  |  |  |  | 4 | 2 |  |  |  |  |
| CN(Cc1cnc2nc(N)nc(N)c2n1)c1ccc(C(=O)N[C@@H](CCC(=O)O)C(=O)O)cc1 [Methotrexate] |  |  | 8.12 | 0.0598 (9.30) mL/min | 210 (7.20) mL | 51.2 (20.3) mL | 12 | 5 | 211 | -2.5 | 2.8 | VPER2, distribution volume of the peripheral compartment 2 [2]: 114 (6.60) mL; QDIFF, drug dispersion rate in brain and CSF ([2]; listed as methotrexate): 0.0598 mL/min; fP (%), free fraction in plasma ([3]; ref Westerhout, 2014): 45%; pKa (Acid) [4]: 3.4; increase of QPL_ECF in the presence of the inhibitor of MRPs, OATs and OATPs [7]: 409%; Impact of active transport on QLV_PL (covariate effect of inhibitor) [7, 8]: 0.410 (16.0)^a; Impact of active transport on QPL_ECF (covariate effect of inhibitor) [7, 8]: 4.09 (3.7)^a |
| Cc1nc2n(c(=O)c1CCN1CCC(c3noc4cc(F)ccc34)CC1)CCCC2 [Risperidone] |  |  | 465 |  |  |  | 4 | 0 | 62 |  |  | fraction unbound [5]: 0.07 |
